Data published in patent publication EP1323715B1, “Inhibitors of cholesterol esterase” (The University of New Mexico, priority 1997, dated 1998).

How the values were obtained:
[1] = rats, single intragastric dose simultaneous with feeding of cholesterol ester; cited from earlier work
lumenal CE = target: T1, lumenal CE (Rattus norvegicus, UniProt P07882); conditions: rats, single intragastric dose simultaneous with feeding of cholesterol ester; cited from earlier work
T1 construct: from tissue; host or cells: rat intestinal lumen (in vivo)
T1 sequence (P07882 21-612): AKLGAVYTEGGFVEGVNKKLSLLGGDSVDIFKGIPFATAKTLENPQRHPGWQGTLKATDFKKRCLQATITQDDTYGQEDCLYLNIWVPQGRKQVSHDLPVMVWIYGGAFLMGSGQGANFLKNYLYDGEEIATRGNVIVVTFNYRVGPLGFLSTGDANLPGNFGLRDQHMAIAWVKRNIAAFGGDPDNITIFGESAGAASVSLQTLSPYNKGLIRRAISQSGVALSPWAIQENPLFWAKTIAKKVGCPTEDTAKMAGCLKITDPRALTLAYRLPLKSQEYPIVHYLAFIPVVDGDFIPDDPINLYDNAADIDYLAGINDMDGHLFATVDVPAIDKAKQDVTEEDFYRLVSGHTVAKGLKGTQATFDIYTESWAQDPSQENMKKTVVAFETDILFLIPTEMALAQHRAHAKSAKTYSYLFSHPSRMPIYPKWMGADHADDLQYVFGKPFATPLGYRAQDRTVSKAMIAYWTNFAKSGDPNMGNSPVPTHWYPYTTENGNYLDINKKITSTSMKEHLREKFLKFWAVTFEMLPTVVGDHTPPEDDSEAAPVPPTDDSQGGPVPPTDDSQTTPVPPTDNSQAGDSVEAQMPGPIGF

CE = target: T2, CE (Homo sapiens, UniProt P19835); conditions: in vitro; cited from earlier work
T2 sequence (P19835 21-753): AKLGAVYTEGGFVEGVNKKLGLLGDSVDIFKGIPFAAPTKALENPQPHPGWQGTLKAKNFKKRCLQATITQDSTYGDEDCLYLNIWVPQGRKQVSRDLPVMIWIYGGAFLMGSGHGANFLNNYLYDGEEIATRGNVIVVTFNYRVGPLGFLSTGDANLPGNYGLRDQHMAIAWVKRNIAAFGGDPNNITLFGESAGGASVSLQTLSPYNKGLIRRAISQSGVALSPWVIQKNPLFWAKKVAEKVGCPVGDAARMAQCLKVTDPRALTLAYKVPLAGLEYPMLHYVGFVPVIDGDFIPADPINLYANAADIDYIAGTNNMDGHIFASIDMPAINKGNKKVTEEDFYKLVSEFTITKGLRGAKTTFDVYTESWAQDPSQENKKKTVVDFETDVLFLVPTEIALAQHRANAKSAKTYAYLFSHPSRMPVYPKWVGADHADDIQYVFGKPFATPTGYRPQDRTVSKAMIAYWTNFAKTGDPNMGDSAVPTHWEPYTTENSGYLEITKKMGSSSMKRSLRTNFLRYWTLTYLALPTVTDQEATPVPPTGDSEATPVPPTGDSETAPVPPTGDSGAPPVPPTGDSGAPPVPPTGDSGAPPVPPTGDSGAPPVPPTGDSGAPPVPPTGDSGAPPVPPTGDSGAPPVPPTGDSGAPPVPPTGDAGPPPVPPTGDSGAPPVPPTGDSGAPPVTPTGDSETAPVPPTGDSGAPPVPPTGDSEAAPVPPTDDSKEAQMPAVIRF

[2] = target: T3, cholesterol esterase (CE) (Homo sapiens, UniProt P19835); experiment: Kinetic inhibition studies of CE with substrate p-nitrophenylbutyrate, Dixon plots; conditions: for inhibition of CE (in words): kinetic inhibition studies
T3 sequence (P19835 21-753): T2 sequence (P19835 21-753)

chymotrypsin = chymotrypsin (Bos taurus, UniProt P00766); experiment: Inhibition of chymotrypsin; assay type: biochemical
Description: Thus, the compounds of the present invention which have a saturated ring as part of the 3-substituent provide tremendous selectivity when compared to compounds where the 3-substituent includes an aromatic ring.

For `O=c1oc(Cl)ccc1Cc1ccccc1` [3-benzyl-6-chloropyrone], the “drop in cholesterol absorption” value [1] is given as 60%, the “inactivation of lumenal CE activity” value (lumenal CE) is given as 63% and the “half life of CE inactivation” value (CE) is given as 1.67 min.
In the case of `O=c1oc(Cl)ccc1CC1CCCCC1` [Example 2], the “inhibition of CE (in words)” value [2] is reported as “potent inhibitors of CE”.
Compound `O=c1oc(Cl)ccc1CCC1CCCCC1` [Example 3] has a Ki (chymotrypsin) of 50 µM and a Ki ([2]; calculated Ki, apparent Ki from Dixon plots, equals one half of the concentration of CE used in the assay) of 0.03 µM.
With `O=c1oc(Cl)ccc1CCCC1CCCCC1` [Example 4] the “inhibition of CE (in words)” value [2] was “potent inhibitors of CE”.
